Laboratory results as given in publication PMC8727363, “Therapeutic Effect of Novel Cyanopyrrolidine-Based Prolyl Oligopeptidase Inhibitors in Rat Models of Amnesia” (Frontiers in Chemistry, 2021).
Several values for one entry are separate records, joined by “and”; a condition that tells them apart may be missing. Identical values can stand only once.

Legend:
MES-induced amnesia = MES-induced amnesia of conditioned passive avoidance reflex (CPAR); format: in vivo; details: rat; for Antiamnesic activity, MES-induced amnesia, 1 and 2 mg/kg: doses of 1 and 2 mg/kg; for Potency in comparison with piracetam, MES-induced amnesia: vs piracetam 300 mg/kg; for Antiamnesic activity, MES-induced amnesia, 1 mg/kg: comparable with piracetam 300 mg/kg
Protocol: (§1) The development of CPAR was performed on a standard passive avoidance device from Lafayette Instrument Co. (United States). The device consists of a small platform located at a distance of 1 m from the floor, illuminated by a special lamp, and a dark chamber with an electrode floor. During learning, a rat was placed on the small platform in front of the entrance to the dark chamber. Immediately after entering the dark chamber, the rat received a painful stimulation from an electric current of 0.6 mA through the electrode floor lasting 10 s or until the rat ran out of the chamber (learning). […] If the rat entered the dark chamber, the training was repeated. A test for the refiex reproduction was performed after 24 h. In this case, the rat was placed on a lighted area, and step-through latency time (STL) of its entry into the dark chamber was recorded. The observation time was 3 min. The criterion for refiex reproduction was considered to be the STL of entry into the dark box.
In the second model, effects of POP inhibitors on MES-induced amnesia were studied. The series included fifteen groups of animals (110 rats). Rats in the negative control group (group 1, n = 8) received 2 ml of vehicle (physiological saline solution containing 1% Tween 80) i.p. 30 min before the CPAR learning. Rats in the positive control group (group 2, n = 7) received MES just after CPAR learning. MES was induced using an electric shock generator from Harvard Apparatus (Holliston, MA, United States) consisting of a current (250 V, 120–122 20 mA, delivered for 0.1 s) by way of corneal electrodes. Rats of groups 3–14 received a single injection of POP inhibitor at doses of 0.5, 1, and 2 mg/kg, including BocTrpPrdN (groups 3–5, n = 7 in each), BocGlyPrdN (groups 6–8, n = 6 in each), CbzMetPrdN (groups 9–11, n = 8 in each), and CbzGlnPrdN (groups 12–14, n = 8 in each) 40 min prior to the CPAR learning (three groups of animals for each inhibitor) with following MES just after CPAR learning. Rats in group 15 (n = 8) received piracetam (300 mg/kg, i.p.) 50 min before the CPAR learning and MES just after CPAR learning.

[1] = molecular target: T1, POP isolated from rat brain (Rattus norvegicus, UniProt O70196); assay: POP inhibition assay (release of AMC from Cbz-Ala-Pro-AMC); format: biochemical; details: substrate Cbz-Ala-Pro-AMC 20 μM, 30 min at 37°C, pH 7.5, read-out: IC50, POP inhibitory activity
T1 construct: the resulting POP preparation was a homogeneous monomer with molecular weight of 75 kDa; from tissue; host or cells: rat brain
T1 sequence (O70196 1-710): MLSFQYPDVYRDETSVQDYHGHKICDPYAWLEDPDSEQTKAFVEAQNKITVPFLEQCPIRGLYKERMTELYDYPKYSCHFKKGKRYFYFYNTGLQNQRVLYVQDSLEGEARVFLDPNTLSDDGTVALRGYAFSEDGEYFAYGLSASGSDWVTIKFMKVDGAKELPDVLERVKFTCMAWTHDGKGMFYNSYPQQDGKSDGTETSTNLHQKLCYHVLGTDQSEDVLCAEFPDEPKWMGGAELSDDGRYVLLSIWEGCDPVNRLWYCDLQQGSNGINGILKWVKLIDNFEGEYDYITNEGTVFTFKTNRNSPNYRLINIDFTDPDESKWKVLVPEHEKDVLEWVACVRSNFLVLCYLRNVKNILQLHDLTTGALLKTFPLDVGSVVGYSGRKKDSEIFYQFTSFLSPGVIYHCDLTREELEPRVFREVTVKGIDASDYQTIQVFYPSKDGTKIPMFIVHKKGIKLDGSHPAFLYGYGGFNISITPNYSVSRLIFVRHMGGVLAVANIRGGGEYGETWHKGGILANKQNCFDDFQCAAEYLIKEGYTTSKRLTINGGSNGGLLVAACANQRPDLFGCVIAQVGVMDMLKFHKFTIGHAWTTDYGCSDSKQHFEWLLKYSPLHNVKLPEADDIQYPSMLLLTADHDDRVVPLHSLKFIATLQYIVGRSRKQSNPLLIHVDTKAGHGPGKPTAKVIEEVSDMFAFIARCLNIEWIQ
Protocol: Briefly, rat brain homogenate was precipitated with ammonium sulfate, followed by ion exchange chromatography on DEAE-Sephadex A-50, gel chromatography on Sephadex G-75, and high-performance liquid chromatography on a MonoQ column using FPLC. […] Purified POP was concentrated by ultrafiltration and stored at −80°C.
The reaction was initiated by addition of the substrate (20 μM) in a final reaction volume of 2 ml. The incubation mixture consisted of 50 μl of the enzyme preparation in 20 mM Tris-HCl buffer (pH 7.5) with 1 mM EDTA, 1 mM dithiothreitol, and 0.1% NP–40; 50 μl of 1 mg/ml substrate solution in DMSO; and 1.9 ml of Tris-HCl buffer. […] After a 30-min incubation at 37°C, the reaction was stopped by addition of 1 ml of acetate buffer (pH 4.0). The AMC concentration was determined on an LS–5B spectrofluorometer (Perkin–Elmer, United States) with excitation and emission wavelengths of 380 and 460 nm, respectively.

[2] = system: scopolamine-induced amnesia; assay: Scopolamine-induced amnesia of conditioned passive avoidance reflex (CPAR); format: in vivo, rat; details: for CPAR retention time, scopolamine-induced amnesia: doses 1 and 2 mg/kg i.p., vs scopolamine only
Protocol: as §1
Experiments were performed using two rat models of amnesia. In the first model, effects of POP inhibitors on scopolamine-induced amnesia were studied. The series included eighteen groups of animals (137 rats). Rats in the negative control group (group 1, n = 8) received 2 ml of vehicle (physiological saline solution containing 1% Tween 80) i.p. 40 min before the CPAR learning. Rats in the non-treated group (group 2, n = 7) received scopolamine (1 mg/kg, i.p. in 2 ml of vehicle) 20 min before the CPAR learning. […].

[3] = system: dipeptidyl peptidase IV (DPP-4); parameters: method as in Ivanova et al., 2020; details: ref Ivanova et al., 2020; cited from earlier work
[4] = Tissue concentration of CbzMetPrdN in the brain after single i.p. administration; format: in vivo; details: single i.p. 20 mg/kg
Protocol: (§2) The total drug concentrations for CbzMetPrdN and POP activity in the brain were determined as a function of time at 0, 20, 40, 60, 80, and 120 min (n = 3 for each time-point) after a single 20 mg/kg intraperitoneal (i.p.) administration of CbzMetPrdN. The test animals were sacrificed, and their brains were harvested and immediately homogenized in phosphate buffer saline.
For measurement of the brain tissue concentration of CbzMetPrdN, the homogenate was mixed with an equal volume of methanol and centrifuged at 3,000 g for 10 min. The supernatant was concentrated to 2 ml, followed by solid phase extraction in a Retain AX SPE cartridge (Thermo Fisher Scientific). The cartridge was washed with 1 ml of 5% ammonia solution and then with 1 ml of methanol. The sample was eluted with 1 ml of 2% trifluoroacetic acid in methanol and analyzed using a Gilson 41 HPLC system (Gilson, United Kingdom) with a 125 × 4 mm Nucleosil C18 column (Macherey-Nagel). The column was washed for 3 min with 4 mM hexanesulfonate in water (pH 3.5), followed by a 0–100% gradient of 4 mM hexanesulfonate in acetonitrile:water (50:50) % (v/v) over 10 min. The concentration of the POP inhibitor is expressed in ng of CbzMetPrdN per mg of brain protein.

[5] = system: MPTP-induced Parkinsonian syndrome; parameters: method as in earlier work; details: ref Khlebnikova et al., 2009b, Krupina et al., Khlebnikova et al., 2012, 2013a, 2013b, Kalinina et al., 2019; cited from earlier work
POP = molecular target: T2, POP (Rattus norvegicus, UniProt O70196); assay: POP activity in brain tissue homogenate after single i.p. administration; format: in vivo
T2 construct: from tissue; host or cells: brain homogenate of rats dosed i.p. with CbzMetPrdN
T2 sequence (O70196 1-710): T1 sequence (O70196 1-710)
Protocol: as §2
POP activity in the brain tissue homogenate was measured using Cbz-Ala-Pro-AMC, as described above, and is presented as nmole AMC released/min/mg of brain protein. Protein concentrations of the supernatants were determined with a Bio-Rad protein assay kit.

[6] = parameters: method as in Jalkanen et al., 2011a; Jalkanen et al., 2014; details: mouse and rat, ref Jalkanen et al., 2011a, 2014; cited from earlier work

CC(C)(C)OC(=O)NCC(=O)N1CCC[C@H]1C#N [BocGlyPrdN, N-(tert-butoxycarbonyl)glycyl-(2S)-pyrrolidine-2-carbonitrile]
Antiamnesic activity, MES-induced amnesia, 1 and 2 mg/kg (MES-induced amnesia): exhibited antiamnesic activity
Potency in comparison with piracetam, MES-induced amnesia (MES-induced amnesia): less potent
IC50 [1]: 12 ± 3 nM
CPAR retention time, scopolamine-induced amnesia ([2]; rat, scopolamine 1 mg/kg): significantly prolonged CPAR retention time

CC(C)(C)OC(=O)N[C@@H](Cc1c[nH]c2ccccc12)C(=O)N1CCC[C@H]1C#N [BocTrpPrdN, N-(tert-butoxycarbonyl)-L-tryptophanyl-(2S)-pyrrolidine-2-carbonitrile]
Antiamnesic activity, MES-induced amnesia, 1 and 2 mg/kg (MES-induced amnesia): exhibited antiamnesic activity
Potency in comparison with piracetam, MES-induced amnesia (MES-induced amnesia): less potent
IC50 [1]: 9 ± 0.9 nM
Antiamnesic activity, scopolamine-induced amnesia (overall) ([2]; rat, 0.5-2 mg/kg i.p., scopolamine 1 mg/kg): clear tendency toward antiamnesic activity

C[C@H](NC(=O)OCc1ccccc1)C(=O)N1CCC[C@H]1C#N [CbzAlaPrdN, N-benzoxycarbonyl-L-alanyl-(2S)-pyrrolidine-2-carbonitrile]
Antiamnesic effect, scopolamine-induced amnesia, all doses ([2]; rat, 0.5, 1 and 2 mg/kg i.p., scopolamine 1 mg/kg): not effective

N#C[C@@H]1CCCN1C(=O)[C@H](CCC(N)=O)NC(=O)OCc1ccccc1 [CbzGlnPrdN, N-Benzyloxycarbonyl-L-glutaminyl-(2S)-pyrrolidine-2-carbonitrile]
Antiamnesic activity, MES-induced amnesia, 1 mg/kg (MES-induced amnesia): potent antiamnesic activity
IC50 [1]: ~2 nM and 2 nM
CPAR retention time, scopolamine-induced amnesia ([2]; rat, scopolamine 1 mg/kg): significantly prolonged CPAR retention time

CSCC[C@H](NC(=O)OCc1ccccc1)C(=O)N1CCC[C@H]1C#N [CbzMetPrdN, N-Benzyloxycarbonyl-L-methionyl-(2S)-pyrrolidine-2-carbonitrile]
Inhibition of DPP-4 activity [3]: inhibited activity
Antiamnesic activity, MES-induced amnesia, 1 mg/kg (MES-induced amnesia): potent antiamnesic activity
Time point with maximal concentration in the brain ([4]; rat): 60 min
Accumulation in rat brain tissue ([4]; 0-120 min): accumulated in the brain
Effect in preclinical model of Parkinsonian syndrome (MPTP) [5]: exhibited neuroprotective activity and abolished depressive symptoms
IC50 [1]: 2.1 ± 0.6 nM
Inhibition of POP in the brain (POP; administered intraperitoneally): effectively inhibits POP in the brain
Time of maximal inhibition of brain POP activity (POP; single i.p. 20 mg/kg): 60 min
CPAR retention time, scopolamine-induced amnesia ([2]; rat, scopolamine 1 mg/kg): significantly prolonged CPAR retention time

N#C[C@@H]1CCCN1C(=O)[C@@H]1CCCN1C(=O)CCCc1ccccc1 [KYP-2047, (2S)-1-[[(2S)-1-(1-oxo-4-phenylbutyl)-2-pyrrolidinyl]carbonyl]-2-pyrrolidinecarbonitrile]
Brain penetration [6]: penetrates mouse and rat brains

CN1[C@@H]2C[C@@H](OC(=O)[C@H](CO)c3ccccc3)C[C@H]1[C@@H]1O[C@@H]12 [scopolamine, reference compound]
Latency period (STL) in CPAR test ([2]; rat, scopolamine 1 mg/kg i.p. 20 min before learning, vehicle-treated rats 145.0 ± 21.7 s): 23.5 ± 9.6 s
